Data reported in patent US20240025919A1, “AZA-TETRACYCLIC OXAZEPINE COMPOUNDS AND USES THEREOF” (Genentech, Inc., priority 2022, published 2024).
Where two headings read alike, the source gives them in different places.

Tests used:
KRAS G12D = KRAS G12D (Homo sapiens (Human), UniProt P01116, G12D); experiment: KRAS G12D LoEnz Biochemical Assay, BODIPY-GDP Exchange TR-FRET (SOS1-mediated nucleotide exchange); settings: read-out: KRas (G12D) GDP HTRF IC50
Experimental: Example 500: KRAS G12D LoEnz Biochemical Assay, BODIPY-GDP Exchange TR-FRET. Biochemical compound potencies are assessed by evaluating inhibition of SOS1I-mediated nucleotide exchange in KRAS G121D. In this assay, the SOS1-promoted exchange of fluorescently-labeled GDP (BOPIDY-GDP) is monitored by time-resolved fluorescence resonance energy transfer (TR-FRET). Compounds solubilized in DMS0 are dispensed as concentration series into 384-well white assay plates. A preformed complex of biotin-tagged recombinant human KRAS (0.06 nM mutant G1 2D) and 0.06 nM terbium-labeled streptavidin (CisBIO) prepared in 10 uL/well assay buffer (20 mM HEPES, pH 7.5, 50 mM NaCl, 10 mMMMgCl2, 0.0100 Tween-20 and 1 mM dithiothreitol) is added and allowed to incubate for 10-minutes at room temperature. The reaction is initiated with the addition of 5 uL 300 nM recombinant human SOS1 and 300 nM BODIPY-GDP in assay buffer. After a 120-minute incubation, the fluorescence is measured with excitation at 337 nm and emission at 490 and 520 nm. The TR-FRET ratio is determined as the fluorescence at 520 nm divided by the fluorescence at 490 nm multiplied by 10,000. The results are normalized to percent inhibition based on control samples: DMSO (0% inhibition) and control compound at a concentration that inhibits completely (100% inhibition). The normalized TR-FRET results are plotted against compound concentration, and the data are fit to a 4-parameter Hill equation to determine the IC50 values.

KRAS WT = KRAS WT (Homo sapiens (Human), UniProt P01116); experiment: KRAS WT Biochemical Assay, BODIPY-GDP Exchange TR-FRET (Example 501; 3 nM KRAS WT, 3 nM SOS1, 60-minute incubation)
Experimental: Example 501: KRAS WT Biochemical Assay, BODIPY-GDP Exchange TR-FRET. Biochemical compound potencies are assessed by evaluating inhibition of SOS1-mediated nucleotide exchange in KRAS WT. In this assay, the SOS1-promoted exchange of fluorescently-labeled GDP (BOPIDY-GDP) is monitored by time-resolved fluorescence resonance energy transfer (TR-FRET). Compounds solubilized in DMSO are dispensed as concentration series into 384-well white assay plates, and 5 uL assay buffer (20 mM HEPES, pH 7.5, 50 mM NaCl, 10 mM MgCl2, 0.01% Tween-20 and 1 mM dithiothreitol) is added just prior to the start of the assay. A preformed complex of 3 nM biotin-tagged recombinant human KRAS WT and 0.3 nM terbium-labeled streptavidin (CisBIO) prepared in 5 uL/well assay buffer is added and allowed to incubate for 10-minutes at room temperature. The reaction is initiated with the addition of 5 uL 3 nM recombinant human SOS1 and 300 nM BODIPY-GDP in assay buffer. After a 60-minute incubation, the fluorescence is measured with excitation at 337 nm and emission at 490 and 520 nm. The TR-FRET ratio is determined as the fluorescence at 520 nm divided by the fluorescence at 490 nm multiplied by 10,000. The results are normalized to percent inhibition based on control samples: DMSO (0% inhibition) and control compound at a concentration that inhibits completely (100% inhibition). The normalized TR-FRET results are plotted against compound concentration, and the data are fit to a 4-parameter Hill equation to determine the IC50 values.

[1] = read-out: KRas(wt) GDP HTRF IC50

Chain of KRAS WT (P01116-2 other isoform, or with tags, fused parts or gaps): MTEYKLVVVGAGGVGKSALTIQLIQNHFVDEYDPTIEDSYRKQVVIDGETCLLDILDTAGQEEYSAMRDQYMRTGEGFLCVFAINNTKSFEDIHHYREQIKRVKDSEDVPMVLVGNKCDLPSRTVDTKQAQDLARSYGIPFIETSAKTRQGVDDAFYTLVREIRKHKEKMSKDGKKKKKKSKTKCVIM
Chain of KRAS G12D (P01116-2 other isoform, or with tags, fused parts or gaps G12D): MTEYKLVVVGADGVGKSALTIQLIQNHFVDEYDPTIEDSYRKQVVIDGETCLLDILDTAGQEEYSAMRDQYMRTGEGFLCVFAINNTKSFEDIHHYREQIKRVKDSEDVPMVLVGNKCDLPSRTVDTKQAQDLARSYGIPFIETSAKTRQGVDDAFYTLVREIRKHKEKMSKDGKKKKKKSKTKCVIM

For Cc1c(F)c(N)cc(-c2nc3c4c(nc(OC[C@@]56CCCN5C[C@H](F)C6)nc4c2F)N2C[C@H]4CC[C@H](N4)[C@@H]2[C@@H](C(F)(F)F)O3)c1C(F)(F)F [Compound 248, 2-Fluoro-5-((5S,5aR,6S,9R)-1-fluoro-12-(((2R,7aS)-2-fluorotetrahydro-1H-pyrrolizin-7a(5H)-yl)methoxy)-5-(trifluoromethyl)-5a,6,7,8,9,10-hexahydro-5H-4-oxa-3,10a,11,13,14-pentaaza-6,9-methanonaphtho[1,8-ab]heptalene-2-yl)-3-methyl-4-(trifluoromethyl)aniline], which IC50 (KRAS G12D) is on record?
The IC50 was 1.1 nM.

And the IC50 (KRAS WT; read-out: KRas HTRF IC50)?
The IC50 was 0.522 nM.

Which IC50 (KRAS G12D) does the source give for Cc1c(F)c(N)cc(-c2nc3c4c(nc(OC[C@@]56CCCN5C[C@H](F)C6)nc4c2F)N2C[C@H]4CC[C@H](N4)[C@H]2[C@H](C(F)(F)F)O3)c1CC(F)F [Compound 250, 4-(2,2-Difluoroethyl)-2-fluoro-5-((5R,5aS,6S,9R)-1-fluoro-12-(((2R,7aS)-2-fluorotetrahydro-1H-pyrrolizin-7a(5H)-yl)methoxy)-5-(trifluoromethyl)-5a,6,7,8,9,10-hexahydro-5H-4-oxa-3,10a,11,13,14-pentaaza-6,9-methanonaphtho[1,8-ab]heptalene-2-yl)-3-methylaniline] here?
Its IC50 is 0.39 nM.

And the IC50 (KRAS WT; read-out: KRas HTRF IC50)?
The IC50 was 13.6 nM.

COC1(C)CN(CC2(COc3nc4c5c(nc(-c6cc(N)nc(C)c6C(F)(F)F)c(F)c5n3)O[C@@H](C)[C@@H]3[C@@H]5CC[C@H](CN43)N5)CC2)C1 [Compound 273, 4-((5S,5aS,6S,9R)-1-fluoro-12-((1-((3-methoxy-3-methylazetidin-1-yl)methyl)cyclopropyl)methoxy)-5-methyl-5a,6,7,8,9,10-hexahydro-5H-4-oxa-3,10a,11,13,14-pentaaza-6,9-methanonaphtho[1,8-ab]heptalene-2-yl)-6-methyl-5-(trifluoromethyl)pyridin-2-amine] was tested. Which IC50 (KRAS G12D) did it give?
The IC50 was 0.29 nM.

What about the IC50 (KRAS WT; read-out: KRas HTRF IC50) of the same compound?
Its IC50 is 17.1 nM.

Which results are given for Cc1c(F)c(N)cc(-c2nc3c4c(nc(OCC56CCN5C[C@H](F)C6)nc4c2F)N2C[C@H]4CC[C@H](N4)[C@H]2[C@H](C)O3)c1C(F)(F)F (stereo partly drawn) [Compound 29, 2-fluoro-5-((5S,5aS,6S,9R)-1-fluoro-12-(((3R)-3-fluoro-1-azabicyclo[3.2.0]heptan-5-yl)methoxy)-5-methyl-5a,6,7,8,9,10-hexahydro-5H-4-oxa-3,10a,11,13,14-pentaaza-6,9-methanonaphtho[1,8-ab]heptalen-2-yl)-3-methyl-4-(trifluoromethyl)aniline]?
IC50 (KRAS G12D): 0.086 nM; IC50 (KRAS WT; [1]): 2.93 nM

C[C@@H]1Oc2nc(-c3c(C(F)(F)F)ccc(N)c3F)c(F)c3nc(OC[C@@]45CCCN4C[C@H](F)C5)nc(c23)N2C[C@H]3CC[C@H](N3)[C@@H]12 [Compound 35, 2-fluoro-3-((5S,5aS,6S,9R)-1-fluoro-12-(((2R,7aS)-2-fluorotetrahydro-1H-pyrrolizin-7a(5H)-yl)methoxy)-5-methyl-5a,6,7,8,9,10-hexahydro-5H-4-oxa-3,10a,11,13,14-pentaaza-6,9-methanonaphtho[1,8-ab]heptalen-2-yl)-4-(trifluoromethyl)aniline] was tested. Which IC50 (KRAS G12D) did it give?
The IC50 was 0.57 nM.

And the IC50 (KRAS WT; [1])?
Its IC50 is 15.8 nM.

For Cc1cc(N)nc(-c2nc3c4c(nc(OC[C@@]56CCCN5CC5(CC5(F)F)C6)nc4c2F)N2C[C@H]4CC[C@H](N4)[C@H]2CO3)c1C(F)(F)F (stereo partly drawn) [Compound 42, 6-((5aS,6S,9R)-12-(((7a'S)-2,2-difluorodihydro-1′H,3′H-spiro[cyclopropane-1,2′-pyrrolizin]-7a′(5′H)-yl)methoxy)-1-fluoro-5a,6,7,8,9,10-hexahydro-5H-4-oxa-3,10a,11,13,14-pentaaza[6,9]methanonaphtho[1,8-ab]heptalen-2-yl)-4-methyl-5-(trifluoromethyl)pyridin-2-amine], which IC50 (KRAS G12D) is on record?
The IC50 was 0.47 nM.

And the IC50 (KRAS WT; [1])?
The IC50 was 45.2 nM.

Which results are given for COC1(CF)CN(CC2(COc3nc4c5c(nc(-c6cc(N)nc(C)c6C(F)(F)F)c(F)c5n3)O[C@@H](C)[C@@H]3[C@@H]5CC[C@H](CN43)N5)CC2)C1 [Compound 272, 4-((5S,5aS,6S,9R)-1-fluoro-12-((1-((3-(fluoromethyl)-3-methoxyazetidin-1-yl)methyl)cyclopropyl)methoxy)-5-methyl-5a,6,7,8,9,10-hexahydro-5H-4-oxa-3,10a,11,13,14-pentaaza-6,9-methanonaphtho[1,8-ab]heptalene-2-yl)-6-methyl-5-(trifluoromethyl)pyridin-2-amine]?
IC50 (KRAS G12D): 0.38 nM; IC50 (KRAS WT; read-out: KRas HTRF IC50): 24.4 nM

What does the source list for C#Cc1cccc2cc(O)cc(-c3nc4c5c(nc(OC[C@@]67CCN6CC(F)(F)C7)nc5c3F)N3C[C@H]5CC[C@H](N5)[C@H]3[C@H](C)O4)c12 (single isomer, unassigned) [Compound 20]?
IC50 (KRAS G12D): 0.12 nM; IC50 (KRAS WT; [1]): 6.55 nM

Which IC50 (KRAS G12D) does the source give for C[C@@H]1Oc2nc(N(C)c3ccc(F)c(N)c3)c(F)c3nc(OC[C@@]45CCCN4C[C@H](F)C5)nc(c23)N2C[C@H]3CC[C@H](N3)[C@@H]12 [Compound 193, 4-fluoro-Ni-((5S,5aS,6S,9R)-1-fluoro-12-(((2R,7aS)-2-fluorotetrahydro-1H-pyrrolizin-7a(5H)-yl)methoxy)-5-methyl-5a,6,7,8,9,10-hexahydro-5H-4-oxa-3,10a,11,13,14-pentaaza-6,9-methanonaphtho[1,8-ab]heptalen-2-yl)-Ni-methylbenzene-1,3-diamine] here?
Its IC50 is 32800 nM.

What about the IC50 (KRAS WT; read-out: KRas HTRF IC50) of the same compound?
Its IC50 is 128000 nM.

Cc1nc(N)cc(-c2nc3c4c(nc(OCC5(CN6CC(C(F)F)C6)CC5)nc4c2F)N2C[C@H]4CC[C@H](N4)[C@H]2[C@H](C)O3)c1C(F)(F)F [Compound 274, 4-((5S,5aS,6S,9R)-12-((1-((3-(difluoromethyl)108eptalene-1-yl)methyl)cyclopropyl)methoxy)-1-fluoro-5-methyl-5a,6,7,8,9,10-hexahydro-5H-4-oxa-3,10a,11,13,14-pentaaza-6,9-methanonaphtho[1,8-ab]heptalene-2-yl)-6-methyl-5-(trifluoromethyl)pyridin-2-amine] was tested. Which IC50 (KRAS G12D) did it give?
Its IC50 is 0.34 nM.

What about the IC50 (KRAS WT; read-out: KRas HTRF IC50) of the same compound?
The IC50 was 25.7 nM.

Which results are given for C[C@@H]1Oc2nc(-c3cc(N)c(F)c(F)c3CC(F)F)c(F)c3nc(OC[C@@]45CCCN4C[C@H](F)C5)nc(c23)N2C[C@H]3CC[C@H](N3)[C@@H]12 [Compound 190, 4-(2,2-Difluoroethyl)-2,3-difluoro-5-((5S,5aS,6S,9R)-1-fluoro-12-(((2R,7aS)-2-fluorotetrahydro-1H-pyrrolizin-7a(5H)-yl)methoxy)-5-methyl-5a,6,7,8,9,10-hexahydro-5H-4-oxa-3,10a,11,13,14-pentaaza-6,9-methanonaphtho[1,8-ab]heptalene-2-yl)aniline]?
IC50 (KRAS G12D): 0.11 nM; IC50 (KRAS WT; read-out: KRas HTRF IC50): 10.1 nM

For Cc1cc(-c2nc3c4c(nc(OC[C@@]56CCCN5C[C@H](F)C6)nc4c2F)N2C[C@H]4CC[C@H](N4)[C@H]2[C@H](C)O3)c(F)c(N)c1F [Compound 18, 2,6-difluoro-3-((5S,5aS,6S,9R)-1-fluoro-12-(((2R,7aS)-2-fluorotetrahydro-1H-pyrrolizin-7a(5H)-yl)methoxy)-5-methyl-5a,6,7,8,9,10-hexahydro-5H-4-oxa-3,10a,11,13,14-pentaaza-6,9-methanonaphtho[1,8-ab]heptalen-2-yl)-5-methylaniline], which IC50 (KRAS G12D) is on record?
Its IC50 is 175 nM.

And the IC50 (KRAS WT; [1])?
The IC50 was 7850 nM.

What does the source list for Cc1c(F)c(N)cc(-c2nc3c4c(nc(OC[C@@]56CCCN5C[C@H](F)C6)nc4c2F)N2C[C@H]4CC[C@H](N4)[C@@H]2[C@H](C)O3)c1C(F)(F)F (single isomer, unassigned) [237 (isomer 1)]?
IC50 (KRAS G12D): 1910 nM; IC50 (KRAS WT; read-out: KRas HTRF IC50): 1020 nM

Which IC50 (KRAS G12D) does the source give for Cc1nc(N)cc(-c2nc3c4c(nc(OCC5(CN6CC7CC(C6)O7)CC5)nc4c2F)N2C[C@H]4CC[C@H](N4)[C@H]2[C@H](C)O3)c1C(F)(F)F [Compound 265, 4-((5S,5aS,6S,9R)-12-((1-((6-oxa-3-azabicyclo[3.1.1]heptan-3-yl)methyl)cyclopropyl)methoxy)-1-fluoro-5-methyl-5a,6,7,8,9,10-hexahydro-5H-4-oxa-3,10a,11,13,14-pentaaza-6,9-methanonaphtho[1,8-ab]heptalene-2-yl)-6-methyl-5-(trifluoromethyl)pyridin-2-amine] here?
The IC50 was 0.28 nM.

What about the IC50 (KRAS WT; read-out: KRas HTRF IC50) of the same compound?
Its IC50 is 14.1 nM.
